Assays:
[1] = Pharmacokinetics in mice, oral dose; type: in vivo, mice (strain FVB/N); conditions: oral 10 mg/kg
Description: (§1) Test compounds were administered to rodents (mice or rats) either orally, subcutaneously or intravenously. To determine blood or plasma concentrations blood samples were taken at different time points and analysed for the concentration of test compound by LC/MS. Brain concentrations were measured by sacrificing animals and LC/MS analysis of brain homogenate. FIG. 2 illustrates graphs for the concentration (ng/ml) Compound (2) in blood, blood plasma and in the brain at 30 minutes to 7 hours after oral treatment.

[2] = Pharmacokinetics in mice, subcutaneous administration; type: in vivo, mice (strain FVB/N); conditions: subcutaneous 10 mg/kg; for Tmax / Cmax / half-life: sc
Description: as §1, with “FIG. 3” for “FIG. 2”, “after the same dosage administered sub-cutaneously.” for “after oral treatment.”

SH-SY5Y cells = experiment: Thapsigargin treated cell death assay in SH-SY5Y cells; type: cell-based, human; conditions: compound at 10 μM; positive = protection from cell death, negative = compound toxicity
How it was run: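 SH-SY5Y neuroblastoma cells given compound (typically 1, 3 and 10 μM, triplicate) 30 min before thapsigargin, with cyclosporin A (3 and 10 μM) as positive control. Cell death read kinetically over 24 h by CellTox Green DNA-binding fluorescence; values are % recovery at 10 μM, usually at 8 h, positive meaning protection.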

[3] = FVB/N, mouse, brain, read-out: Tmax Brain
[4] = FVB/N, mouse, plasma, read-out: Cmax Plasma
[5] = FVB/N, mouse, plasma, read-out: T1/2 Plasma (converted)
[6] = FVB/N, mouse, plasma, read-out: Tmax Plasma
[7] = FVB/N, mouse, whole blood, read-out: Cmax Whole blood
[8] = FVB/N, mouse, whole blood, read-out: T1/2 Whole blood (converted)
[9] = FVB/N, mouse, whole blood, read-out: Tmax Whole blood

## CC(C)[C@@H]1OC(=O)C(C)(C)/C=C/c2ccc3ccc(nc3c2)N(C)NC(=O)[C@@H]2CCCN(N2)C(=O)[C@H](C)NC1=O [Compound (2)]
[1]; FVB/N, mouse, brain and blood
  Kp: 0.72
[1]; [3]
  Tmax: 7 h
[1]; [4]
  Cmax: 582 ng/mL
[1]; [5]
  half-life: 3 h
[1]; [6]
  Tmax: 0.5 h
[1]; [7]
  Cmax: 1490 ng/mL
[1]; [8]
  half-life: 5.45 h
[1]; [9]
  Tmax: 0.5 h
[1]
  AUC0-t Plasma: 3180 ng/mL/h
  AUC0-t Whole blood: 12500 ng/mL/h
  Blood/plasma: 2.87 Ratio
  Cmax Brain: 297 ng/mL
[2]; FVB/N, mouse, brain and blood
  Kp: 0.9
[2]; [3]
  Tmax: 2 h
[2]; [4]
  Cmax: 1640 ng/mL
[2]; [5]
  half-life: 1.77 h
[2]; [6]
  Tmax: 0.5 h
[2]; [7]
  Cmax: 2640 ng/mL
[2]; [8]
  half-life: 3.17 h
[2]; [9]
  Tmax: 0.5 h
[2]
  AUC0-t Brain: 3370 ng/mL/h
  AUC0-t Plasma: 3730 ng/mL/h
  AUC0-t Whole blood: 8150 ng/mL/h
  Blood/plasma: 2.2 Ratio
  Cmax Brain: 563 ng/mL
SH-SY5Y cells
  SYSY [10 μM] % recovery: 40.4%

Source: patent publication US20250243219A1, “MACROCYCLIC COMPOUNDS AND USES THEREOF” (Cypralis Limited, priority 2022, published 2025)
